Test results from paper PMC10897476, “Pyridylpiperazine efflux pump inhibitor boosts in vivo antibiotic efficacy against K. pneumoniae” (EMBO Molecular Medicine, 2023).
Values joined by “and” are separate entries in the source; they are usually repeats but may differ in a detail not shown here. Equal entries are not always repeated. Marks after values point to notes of the source that are not given here.

Assays:
[1] = system: K. pneumoniae AcrB^V448E RamR^mut; experiment: MIC of antibiotics with and without EPI (REMA), double mutant; type: cell-based, Klebsiella pneumoniae; details: K. pneumoniae AcrB^V448E RamR^mut
K. pneumoniae ATCC 43816 = experiment: K. pneumoniae mouse lung infection (lung CFU); type: in vivo, Klebsiella pneumoniae; details: for reduction in lung bacterial load compared to untreated mice: at 24 h
Text: Mice experiments complied with national, institutional and European regulations and ethical guidelines, were in accordance with ARRIVE guidelines 2.0 and were approved by the Institutional Animal Care and Use Committee (animal facility agreement D59-350009, Institut Pasteur de Lille, protocol reference: APAFIS#25953, 2020060916081461_v2). Six to eight weeks old female C57BL/6JRj mice were purchased from Janvier Laboratories (Saint Berthevin, France), allocated into experimental groups in a random fashion and maintained in individually ventilated cages (Innorack® IVC Mouse 3.5) and handled in a vertical laminar flow biosafety cabinet (Class II Biohazard, Tecniplast). All infections were performed in an animal biosafety level 2 facility.
Inoculum was prepared as follows. Tryptic Soy broth was inoculated with K. pneumoniae from a frozen stock and grown overnight at 37 °C without shaking. 1 mL of this overnight bacterial culture was transferred to a warm fresh Tryptic Soy broth and grown at 37 °C until it reached the mid-log. Cells were pelleted, washed with PBS and resuspended to the appropriate concentration.
22 h post-infection, mice were treated with BDM91288 (5) (30 mg/kg, 200 µL, formulated in 10% hydroxypropyl-beta-cyclodextrine (Kleptose HP; Roquette) at 3 mg/mL) by intragastric route. […] At 4 h or 24 h post antibiotic treatment, mice were euthanized by cervical dislocation. Lungs were collected in 1 mL of PBS, homogenized with a T-25 digital Ultraturrax® (IKA). CFU counts were determined by plating serial dilutions onto Tryptic Soy agar plate.

[2] = system: K. pneumoniae ATCC 43816 (WT); experiment: MIC of antibiotics with and without EPI (REMA), WT strain; type: cell-based, Klebsiella pneumoniae; details: K. pneumoniae WT
Procedure: Overnight cultures were diluted to an OD600 = 0.001 in CAMHB followed by addition of efflux pump inhibitors (EPIs) at a final concentration of 100 µM. […] Plates were incubated at 37 °C for up to 20 h. […] MICs were defined as the concentration that prevented 90% of resazurin turnover compared to the non-treated bacteria.

in vitro = type: cell-based; details: mouse, BALB/3T3 cells, read-out: in vitro cytotoxicity CC50
Procedure: BALB/3T3 cells (CCL-163 from ATCC) were not authenticated. The cell lines were tested negative for mycoplasma contamination (kit mycoalert LONZA). The cytotoxicity of compound BDM91288 (5) was determined on BALB/3T3 cells using live imaging following both Hoechst 33342 and propidium iodide staining. Propidium iodide is a not membrane-permeable DNA stain, allowing to differentiate necroptic, apoptotic and healthy cells based on loss of membrane integrity. […] Final medium volume was 70 µL. 24 h after compounds addition, live imaging was performed using the automated confocal microscope In Cell Analyzer 6000 (GE Healthcare). The cytotoxicity was defined as the percent of cells labelled by propidium iodide in the total cell population (Hoechst labelled cells) using Columbus software (Perkin Elmer). Compounds were tested in triplicate. Carfilzomib (499, 249, […], 61, and 30.6 nM) was used as a positive control in this assay.

[3] = system: K. pneumoniae AcrB variant V448E; experiment: Berberine accumulation assay, K. pneumoniae AcrB V448E; type: cell-based, Klebsiella pneumoniae; details: K. pneumoniae producing AcrB variant V448E
Procedure: (§1) The accumulation of the berberine AcrB substrate in K. pneumoniae WT and AcrB-V448E cells in the presence of different BDM91288 (5) concentrations was determined as described (Plé et al, [2022]) with minor modifications. Briefly, an overnight LB pre-culture of each strain (0.6 mL) was used to inoculate a 30-mL LB culture and incubated for around 2 h (37 °C, 150 rpm) to reach OD600 around 1. Cells were harvested by centrifugation (4000 × g, 10 min at 4 °C), washed three times with 10 mL of ice-cold buffer (50 mM potassium-phosphate pH 7.5 and 1 mM MgSO4) and resuspended into the same buffer containing also 0.2% glucose to an OD600 of 2. The bacterial suspension was then allowed to reach room temperature, after which 200 µL was dispensed to wells of an assay ready 96-black-well plate (Greiner Bio-One) containing 2 µL of 100× concentrated serial dilution of BDM91288 (5). To initiate the uptake experiment, 2 µL of berberine 20 mM (final concentration of 200 µM) was added to each well and transferred to a microplate fluorescence plate reader (Spark, Tecan), where the kinetics of berberine uptake was monitored for 20 min at 30 °C (excitation 365 nm/emission 540 nm). Experiments were performed 4 independent times, and berberine uptake was calculated for all conditions as the rate of fluorescence increase over the first 10 min and expressed as RFU/min (mean ± SD). […]

K. pneumoniae AcrB = K. pneumoniae AcrB (Klebsiella pneumoniae, UniProt A0A332Z023); experiment: Berberine accumulation assay, K. pneumoniae WT; type: cell-based; details: read-out: apparent Ki, concentration-dependent stimulation of berberine uptake, 200 µM berberine
Procedure: as §1

Sequence of K. pneumoniae AcrB (A0A332Z023 entry or part of it): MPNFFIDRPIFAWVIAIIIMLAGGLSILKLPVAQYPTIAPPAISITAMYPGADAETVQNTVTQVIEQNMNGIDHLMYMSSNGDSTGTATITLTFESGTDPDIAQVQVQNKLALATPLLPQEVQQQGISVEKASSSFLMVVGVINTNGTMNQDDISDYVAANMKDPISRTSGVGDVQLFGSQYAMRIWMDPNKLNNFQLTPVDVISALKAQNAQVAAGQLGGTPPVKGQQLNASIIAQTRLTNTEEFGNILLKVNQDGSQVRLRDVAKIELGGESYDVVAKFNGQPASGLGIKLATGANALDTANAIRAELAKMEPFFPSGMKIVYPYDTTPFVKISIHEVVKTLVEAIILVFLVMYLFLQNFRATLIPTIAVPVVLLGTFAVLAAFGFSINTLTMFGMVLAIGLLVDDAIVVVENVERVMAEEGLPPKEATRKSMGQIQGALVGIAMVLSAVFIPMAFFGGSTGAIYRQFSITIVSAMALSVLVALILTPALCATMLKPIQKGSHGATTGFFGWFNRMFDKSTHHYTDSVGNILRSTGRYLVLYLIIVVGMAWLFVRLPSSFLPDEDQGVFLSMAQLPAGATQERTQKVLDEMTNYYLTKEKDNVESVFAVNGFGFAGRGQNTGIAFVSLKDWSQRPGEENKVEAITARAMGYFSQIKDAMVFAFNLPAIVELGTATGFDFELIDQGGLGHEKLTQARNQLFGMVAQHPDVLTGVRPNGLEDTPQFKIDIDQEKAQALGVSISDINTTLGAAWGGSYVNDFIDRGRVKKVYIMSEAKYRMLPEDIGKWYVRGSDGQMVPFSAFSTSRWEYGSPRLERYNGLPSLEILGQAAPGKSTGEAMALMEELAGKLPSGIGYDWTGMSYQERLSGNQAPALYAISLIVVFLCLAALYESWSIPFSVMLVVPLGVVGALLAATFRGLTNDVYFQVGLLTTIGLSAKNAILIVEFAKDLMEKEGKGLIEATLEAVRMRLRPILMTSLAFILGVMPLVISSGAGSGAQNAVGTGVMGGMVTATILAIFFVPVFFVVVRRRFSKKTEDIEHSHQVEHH

Compound: C[C@H]1COc2c(N3CCN(C)CC3)c(F)cc3c(=O)c(C(=O)O)cn1c23 [Levofloxacin]
- Minimum Inhibitory Concentration ([1]; + 100 µM 1'): 1.28 mg/L
- Minimum Inhibitory Concentration ([1]; + 100 µM 5): 1.28 mg/L
- Minimum Inhibitory Concentration ([1]; + 100 µM PAβN): 0.05^# mg/L
- Minimum Inhibitory Concentration ([1]; No EPI): 1.28 mg/L
- CFU counts, lung, single animals (K. pneumoniae ATCC 43816; 4h post-treatment, levofloxacin 10mg/kg): 2830 CFU and 567 CFU and 1330 CFU and 3170 CFU and 3670 CFU and 1830 CFU and 4670 CFU and 7670 CFU and 717 CFU and 3330 CFU and 2170 CFU and 833 CFU and 2000 CFU and 500 CFU and 450 CFU and 150 CFU
- CFU counts, lung, single animals (K. pneumoniae ATCC 43816; 4h post-treatment, levofloxacin 50mg/kg): 200 CFU and 50 CFU and 267 CFU and 16.7 CFU and 117 CFU and 350 CFU and 583 CFU and 450 CFU and 833 CFU and 1000 CFU and 133 CFU and 667 CFU and 1330 CFU and 1500 CFU and 1170 CFU and 367 CFU
- CFU counts, lung, single animals (K. pneumoniae ATCC 43816; 24h post-treatment, levofloxacin 10mg/kg): 117 CFU and 83.3 CFU and 15300 CFU and 26700 CFU and 7500 CFU and 1000 CFU and 6330 CFU and 9170 CFU
- CFU counts, lung, single animals (K. pneumoniae ATCC 43816; 24h post-treatment, levofloxacin 50mg/kg): 16.7 CFU and 167 CFU and 66.7 CFU and 50 CFU and 100 CFU and 83.3 CFU
- reduction in lung bacterial load compared to untreated mice (K. pneumoniae ATCC 43816; single dose 10 mg/kg i.p.): 3.2 log
- reduction in lung bacterial load compared to untreated mice (K. pneumoniae ATCC 43816; single dose 50 mg/kg i.p.): 5.9 log
- Minimum Inhibitory Concentration ([2]; + 100 µM 1'): 0.01^# mg/L
- Minimum Inhibitory Concentration ([2]; + 100 µM 5): 0.01^# mg/L
- Minimum Inhibitory Concentration ([2]; + 100 µM PAβN): 0.02^# mg/L
- MIC ([2]; Klebsiella pneumoniae, ATCC43816, No EPI, read-out: Minimum Inhibitory Concentration): 0.04 µg/mL

Compound: Clc1cc2cc(N3CCNCC3)ccc2nc1N1CCNCC1 [compound 5]
- CFU counts, lung, single animals (K. pneumoniae ATCC 43816; 4h post-treatment, BDM91288 + levofloxacin 10mg/kg): 250 CFU and 1500 CFU and 667 CFU and 267 CFU and 483 CFU and 1830 CFU and 1670 CFU and 500 CFU and 1170 CFU and 517 CFU and 833 CFU and 383 CFU and 650 CFU and 550 CFU and 450 CFU and 2670 CFU and 3170 CFU and 1000 CFU and 583 CFU
- CFU counts, lung, single animals (K. pneumoniae ATCC 43816; 4h post-treatment, BDM91288 alone): 433000 CFU and 400000 CFU and 533000 CFU and 817000 CFU and 13800000 CFU and 2670000 CFU and 5170000 CFU and 2330000 CFU and 550000 CFU and 700000 CFU and 1830000 CFU and 250000 CFU and 1030000 CFU and 600000 CFU and 1120000 CFU and 317000 CFU and 1380000 CFU and 167000 CFU and 2500000 CFU and 450000 CFU and 267000 CFU and 567000 CFU
- CFU counts, lung, single animals (K. pneumoniae ATCC 43816; 24h post-treatment, BDM91288 + levofloxacin 10mg/kg): 16.7 CFU and 1500 CFU and 117 CFU and 200 CFU and 850 CFU and 517 CFU and 350 CFU and 683 CFU and 283 CFU
- CFU counts, lung, single animals (K. pneumoniae ATCC 43816; 24h post-treatment, BDM91288 alone): 98300 CFU and 4500000 CFU and 26700000 CFU and 31700000 CFU and 28300000 CFU and 1650000 CFU and 18300000 CFU and 13300000 CFU and 10000000 CFU and 12300000 CFU and 6170000 CFU and 7000000 CFU and 20000000 CFU and 483000 CFU and 16700000 CFU
- impact on the K. pneumoniae bacterial load in the lungs (K. pneumoniae ATCC 43816; single dose 30 mg/kg p.o., alone): no impact
- CC50 at 24 h (in vitro): 48 µM
- concentration-dependent stimulation of berberine uptake [3]: not observed
- Ki (K. pneumoniae AcrB): ~20 µM
